Source: patent publication US8785614B2, “Aberrantly methylated genes in pancreatic cancer” (The Johns Hopkins University, priority 2003, dated 2014)
Like-named read-outs stand apart in the source and are kept apart here.

System: nonneoplastic ductal cell line HPDE
Experimental: Total RNA was isolated from cultured cells using TRIZOL reagent (invitrogen, Carlsbad, Calif.) and purified using RNeasy Mini Kit (Qiagen, Valencia, Calif.). First- and second-stranded cDNA was synthesized from 10 μg of total RNA using 17-dT) primer (Genset Corp., La Jolla, Calif.) and Superscript Choice system (Invitrogen). Labeled cRNA was synthesized from the purified cDNA by in vitro transcription reaction using the BioArray High Yield RNA Transcript Labeling Kit (Enzo Diagnostics, Inc., Farmingdale, N.Y.) at 37° C. for 6 h. The cRNA was fragmented at 94° C. for 35 min. in a fragmentation buffer [40 mM Tris-acetate @ pH 8.1, 100 mM potassium acestate, and 30 mM magnesium acetate]. The fragmented cRNA was then hybridized to the Human Genome U133A chips (Affymetrix, Santa Clara, Calif.) with 18462 unique gene/EST transcripts at 45° C. for 16 h. The washing and staining procedure was performed in the Affymetrix Fluidics Station according to the manufacturer's instructions. The probes were then scanned using a laser scanner, and signal intensity for each transcript (background-subtracted and adjusted for noise) was calculated using Microarray Suite Software 5.0 (Affymetrix).
Fold change analysis of signal intensities obtained from oligonucleotide microarrays between the two treatment groups was performed using Data Mining software (Afrymetrix).

Nc1ncn([C@H]2C[C@H](O)[C@@H](CO)O2)c(=O)n1 [5Aza-dC, 5 aza 2′ deoxycytidine]
Fold-change after 5Aza-dC treatment (ANGPT2, HPDE): −0.4 fold
Fold-change after 5Aza-dC treatment (BARD1, HPDE): 2.23 fold
Fold-change after 5Aza-dC treatment (BNIP3, HPDE): 1.23 fold
Fold-change after 5Aza-dC treatment (BST2, HPDE): −1.06 fold
Fold-change after 5Aza-dC treatment (CACNA1G, HPDE): 0.39 fold
Fold-change after 5Aza-dC treatment (CCNE2, HPDE): 1.5 fold
Fold-change after 5Aza-dC treatment (CDH3, HPDE): −1.08 fold
Fold-change after 5Aza-dC treatment (CDKN1A (p21), HPDE): 1.33 fold
Fold-change after 5Aza-dC treatment (CDKN1C, HPDE): 1.07 fold
Fold-change after 5Aza-dC treatment (CLDN5, HPDE): 2.45 fold
Fold-change after 5Aza-dC treatment (CSF1, HPDE): −1.03 fold
Fold-change after 5Aza-dC treatment (DR3, HPDE): 1.01 fold
Fold-change after 5Aza-dC treatment (FOXE1, HPDE): −1.1 fold
Fold-change after 5Aza-dC treatment (GAGE1, HPDE): −0.55 fold
Fold-change after 5Aza-dC treatment (GAGE3, HPDE): 1.33 fold
Fold-change after 5Aza-dC treatment (GAGE4, HPDE): 3.33 fold
Fold-change after 5Aza-dC treatment (GAGE6, HPDE): 2.41 fold
Fold-change after 5Aza-dC treatment (GAGE7, HPDE): 3.36 fold
Fold-change after 5Aza-dC treatment (HOXA1, HPDE): −1.23 fold
transcripts induced, share of transcripts analyzed (HPDE): 0.5%
transcripts whose expression was induced after drug treatment (HPDE): 101 transcripts
Fold-change after 5Aza-dC treatment (IGF2, HPDE): −0.34 fold
Fold-change after 5Aza-dC treatment (IL1R1, HPDE): −1.81 fold
Fold-change after 5Aza-dC treatment (ISG20, HPDE): 0.89 fold
Fold-change after 5Aza-dC treatment (JPH3, HPDE): 2.14 fold
Fold-change after 5Aza-dC treatment (KLK10, HPDE): 3.75 fold
Fold-change after 5Aza-dC treatment (LDOC1, HPDE): −1.12 fold
Fold-change after 5Aza-dC treatment (LHX1, HPDE): 1.01 fold
Fold-change after 5Aza-dC treatment (MAGE1, HPDE): 1.7 fold
Fold-change after 5Aza-dC treatment (MATN1, HPDE): −125 fold
Fold-change after 5Aza-dC treatment (NEFH, HPDE): −1.08 fold
Fold-change after 5Aza-dC treatment (NPTX2, HPDE): 2.42 fold
Fold-change after 5Aza-dC treatment (PAX6, HPDE): 2.57 fold
Fold-change after 5Aza-dC treatment (PDYN, HPDE): −1.04 fold
Fold-change after 5Aza-dC treatment (PLAT, HPDE): 4.9 fold
Fold-change after 5Aza-dC treatment (PLEK2, HPDE): 1.2 fold
Fold-change after 5Aza-dC treatment (SARP2, HPDE): 1.11 fold
Fold-change after 5Aza-dC treatment (SMARCA1, HPDE): 3.54 fold
Fold-change after 5Aza-dC treatment (ST14, HPDE): −1.05 fold
Fold-change after 5Aza-dC treatment (TIMP3, HPDE): 1.32 fold
Fold-change after 5Aza-dC treatment (TJP2, HPDE): 1.41 fold
Fold-change after 5Aza-dC treatment (TNF, HPDE): −1.2 fold
Fold-change after 5Aza-dC treatment (UCHL1, HPDE): 1.95 fold
Fold-change after 5Aza-dC treatment (WNT7A, HPDE): −1.23 fold
Fold-change after 5Aza-dC treatment (XAGE-1, HPDE): −0.43 fold
Fold-change after 5Aza-dC treatment (granulocytemacrophage colony-stimulating factor (M11734), HPDE): −0.94 fold
Fold-change after 5Aza-dC treatment (interferon, alpha-inducible protein (NM_022873), HPDE): 1.33 fold
Fold-change after 5Aza-dC treatment (p53-induced protein (PIGII), HPDE): −1.58 fold
Fold-change after 5Aza-dC treatment (reprimo, HPDE): 1.06 fold
Fold-change after 5Aza-dC treatment (stratifin (14-3-3 sigma), HPDE): −1.46 fold
Fold-change after 5Aza-dC treatment (stromal antigen 3 (STAG5), HPDE): 4.8 fold
Fold-change after 5Aza-dC treatment (testin, HPDE): 1.09 fold
